Measured values taken from PubChem BioAssay AID1963827 (Molecular Pharmacology Branch, DTP, NCI, 2024).

Tested on: 994946-033-R-J1-PDC complex spheroid viability
Assay: Anticancer human tumor 994946-033-R-J1-PDC patient-derived melanoma cell line growth inhibition [POLQ]
Conditions: for IC50: curve of first compound; for viability, T/C: stronger effect = lower value
In short: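 PDC + HUVEC + MSC complex spheroids; POLQ inhibitors ± partner drugs; top conc. at/near clinical Cmax, else 10 microM (SN-38 1 microM), half-log dilutions; 37 degrees C, 5% CO2.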

[1] = second compound 0.0316 µM, first compound 0.0316 µM
[2] = second compound 0.0316 µM, first compound 0.1 µM
[3] = second compound 0.0316 µM, first compound 0.316 µM
[4] = second compound 0.0316 µM, first compound 1 µM
[5] = second compound 0.1 µM, first compound 0.0316 µM
[6] = second compound 0.1 µM, first compound 0.1 µM
[7] = second compound 0.1 µM, first compound 0.316 µM
[8] = second compound 0.1 µM, first compound 1 µM
[9] = second compound 0.316 µM, first compound 0.0316 µM
[10] = second compound 0.316 µM, first compound 0.1 µM
[11] = second compound 0.316 µM, first compound 0.316 µM
[12] = second compound 0.316 µM, first compound 1 µM
[13] = second compound 1 µM, first compound 0.0316 µM
[14] = second compound 1 µM, first compound 0.1 µM
[15] = second compound 1 µM, first compound 0.316 µM
[16] = second compound 1 µM, first compound 1 µM
[17] = second compound 3.16 µM, first compound 0.0316 µM
[18] = second compound 3.16 µM, first compound 0.1 µM
[19] = second compound 3.16 µM, first compound 0.316 µM
[20] = second compound 3.16 µM, first compound 1 µM
[21] = second compound 10 µM, first compound 0.0316 µM
[22] = second compound 10 µM, first compound 0.1 µM
[23] = second compound 10 µM, first compound 0.316 µM
[24] = second compound 10 µM, first compound 1 µM
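Further: spheroids exposed to drugs for 7 days.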
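Wherever viability, T/C is given: 100% = DMSO vehicle treated spheroids.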

`C#Cc1c(F)ccc2cc(O)cc(-c3ncc4c(N5CC6CCC(C5)N6)nc(OCC56CCCN5CC(F)C6)nc4c3F)c12` (stereo unspecified) + Nc1ccc(C#CCN(C(=O)Cc2ncc(C(F)(F)F)cc2C(F)(F)F)c2ccc(F)cc2)nn1 showed an IC50 (second compound 0.0316 µM) of 4280 nM, an IC50 (second compound 0.1 µM) of 5460 nM and an IC50 (second compound 0.316 µM) of 5990 nM. The IC50 (second compound 1 µM) was 3660 nM, the IC50 (second compound 3.16 µM) was 5380 nM and the IC50 (second compound 10 µM) was 5090 nM. The viability, T/C [1] was 101%, the viability, T/C [2] was 109% and the viability, T/C [3] was 91.9%. The viability, T/C [4] was 82.5%, the viability, T/C (second compound 0.0316 µM, first compound 3.16 µM) was 67.2% and the viability, T/C (second compound 0.0316 µM, first compound 10 µM) was 11.7%. The viability, T/C [5] was 90.2%, the viability, T/C [6] was 88.9% and the viability, T/C [7] was 97.8%. For the same compound, the viability, T/C [8] was 74.1%, the viability, T/C (second compound 0.1 µM, first compound 3.16 µM) was 81% and the viability, T/C (second compound 0.1 µM, first compound 10 µM) was 19.1%. The viability, T/C [9] was 100%, the viability, T/C [10] was 84.7% and the viability, T/C [11] was 74.8%. The viability, T/C [12] was 96.2%, the viability, T/C (second compound 0.316 µM, first compound 3.16 µM) was 84.1% and the viability, T/C (second compound 0.316 µM, first compound 10 µM) was 22.3%. For the same compound, the viability, T/C [13] was 80.6%, the viability, T/C [14] was 89.8% and the viability, T/C [15] was 90.1%. The viability, T/C [16] was 66.5%, the viability, T/C (second compound 1 µM, first compound 3.16 µM) was 59.8% and the viability, T/C (second compound 1 µM, first compound 10 µM) was 5.38%. It also gave a viability, T/C [17] of 74.4%, a viability, T/C [18] of 85.1% and a viability, T/C [19] of 102%. For the same compound, the viability, T/C [20] was 79.1%, the viability, T/C (second compound 3.16 µM, first compound 3.16 µM) was 81.1% and the viability, T/C (second compound 3.16 µM, first compound 10 µM) was 13.7%. The viability, T/C [21] was 80%, the viability, T/C [22] was 106% and the viability, T/C [23] was 76.2%. It also gave a viability, T/C [24] of 112%, a viability, T/C (second compound 10 µM, first compound 3.16 µM) of 71% and a viability, T/C (second compound 10 µM, first compound 10 µM) of 20.3%.

Work on `C=CCn1c(=O)c2cnc(Nc3ccc(N4CCN(C)CC4)cc3)nc2n1-c1cccc(C(C)(C)O)n1` + Cc1cccc(N(C)C(=O)C2C(O)CCN2c2nc(C)cc(C(F)(F)F)c2C#N)c1 yielded an IC50 (second compound 0.0316 µM) of 625 nM, an IC50 (second compound 0.1 µM) of over 1000 nM and an IC50 (second compound 0.316 µM) of 489 nM. For the same compound, the IC50 (second compound 1 µM) was 765 nM, the IC50 (second compound 3.16 µM) was 871 nM and the IC50 (second compound 10 µM) was 915 nM. The viability, T/C (second compound 0.0316 µM, first compound 0.00316 µM) was 94.9%, the viability, T/C (second compound 0.0316 µM, first compound 0.01 µM) was 95.3% and the viability, T/C [1] was 132%. For the same compound, the viability, T/C [2] was 108%, the viability, T/C [3] was 73.3% and the viability, T/C [4] was 33.9%. For the same compound, the viability, T/C (second compound 0.1 µM, first compound 0.00316 µM) was 66.7%, the viability, T/C (second compound 0.1 µM, first compound 0.01 µM) was 93.5% and the viability, T/C [5] was 103%. The viability, T/C [6] was 115%, the viability, T/C [7] was 73.5% and the viability, T/C [8] was 52.4%. The viability, T/C (second compound 0.316 µM, first compound 0.00316 µM) was 80.4%, the viability, T/C (second compound 0.316 µM, first compound 0.01 µM) was 112% and the viability, T/C [9] was 83.5%. The viability, T/C [10] was 102%, the viability, T/C [11] was 60% and the viability, T/C [12] was 33.5%. The viability, T/C (second compound 1 µM, first compound 0.00316 µM) was 111%, the viability, T/C (second compound 1 µM, first compound 0.01 µM) was 95.1% and the viability, T/C [13] was 117%. For the same compound, the viability, T/C [14] was 113%, the viability, T/C [15] was 84.3% and the viability, T/C [16] was 39.6%. For the same compound, the viability, T/C (second compound 3.16 µM, first compound 0.00316 µM) was 116%, the viability, T/C (second compound 3.16 µM, first compound 0.01 µM) was 118% and the viability, T/C [17] was 111%. For the same compound, the viability, T/C [18] was 108%, the viability, T/C [19] was 111% and the viability, T/C [20] was 41.7%. The viability, T/C (second compound 10 µM, first compound 0.00316 µM) was 123%, the viability, T/C (second compound 10 µM, first compound 0.01 µM) was 73.9% and the viability, T/C [21] was 81.3%. The viability, T/C [22] was 121%, the viability, T/C [23] was 80.5% and the viability, T/C [24] was 47.4%.

For `CC(=O)O[C@H]1C(=O)[C@@]2(C)[C@H]([C@H](OC(=O)c3ccccc3)[C@]3(O)C[C@H](OC(=O)[C@H](O)[C@@H](NC(=O)c4ccccc4)c4ccccc4)C(C)=C1C3(C)C)[C@]1(OC(C)=O)CO[C@@H]1C[C@@H]2O` + Nc1ccc(C#CCN(C(=O)Cc2ncc(C(F)(F)F)cc2C(F)(F)F)c2ccc(F)cc2)nn1, the IC50 (second compound 0.0316 µM) was under 9.49 nM, the IC50 (second compound 0.1 µM) was under 9.49 nM and the IC50 (second compound 0.316 µM) was under 9.49 nM. It also gave an IC50 (second compound 1 µM) of under 9.49 nM, an IC50 (second compound 3.16 µM) of under 9.49 nM and an IC50 (second compound 10 µM) of under 9.49 nM. The viability, T/C (second compound 0.0316 µM, first compound 0.00949 µM) was 20.4%, the viability, T/C (second compound 0.0316 µM, first compound 0.03 µM) was 18.5% and the viability, T/C (second compound 0.0316 µM, first compound 0.0949 µM) was 14.8%. For the same compound, the viability, T/C (second compound 0.0316 µM, first compound 0.3 µM) was 22%, the viability, T/C (second compound 0.0316 µM, first compound 0.949 µM) was 13.5% and the viability, T/C (second compound 0.0316 µM, first compound 3 µM) was 12%. For the same compound, the viability, T/C (second compound 0.1 µM, first compound 0.00949 µM) was 25.9%, the viability, T/C (second compound 0.1 µM, first compound 0.03 µM) was 23.6% and the viability, T/C (second compound 0.1 µM, first compound 0.0949 µM) was 19.4%. For the same compound, the viability, T/C (second compound 0.1 µM, first compound 0.3 µM) was 15.9%, the viability, T/C (second compound 0.1 µM, first compound 0.949 µM) was 9.63% and the viability, T/C (second compound 0.1 µM, first compound 3 µM) was 13.3%. It also gave a viability, T/C (second compound 0.316 µM, first compound 0.00949 µM) of 22.3%, a viability, T/C (second compound 0.316 µM, first compound 0.03 µM) of 20.8% and a viability, T/C (second compound 0.316 µM, first compound 0.0949 µM) of 20.4%. The viability, T/C (second compound 0.316 µM, first compound 0.3 µM) was 15.9%, the viability, T/C (second compound 0.316 µM, first compound 0.949 µM) was 13.8% and the viability, T/C (second compound 0.316 µM, first compound 3 µM) was 13.9%. The viability, T/C (second compound 1 µM, first compound 0.00949 µM) was 29.7%, the viability, T/C (second compound 1 µM, first compound 0.03 µM) was 24.9% and the viability, T/C (second compound 1 µM, first compound 0.0949 µM) was 20%. It also gave a viability, T/C (second compound 1 µM, first compound 0.3 µM) of 20%, a viability, T/C (second compound 1 µM, first compound 0.949 µM) of 15.3% and a viability, T/C (second compound 1 µM, first compound 3 µM) of 13.2%. It also gave a viability, T/C (second compound 3.16 µM, first compound 0.00949 µM) of 29.2%, a viability, T/C (second compound 3.16 µM, first compound 0.03 µM) of 24.2% and a viability, T/C (second compound 3.16 µM, first compound 0.0949 µM) of 18.4%. For the same compound, the viability, T/C (second compound 3.16 µM, first compound 0.3 µM) was 15.3%, the viability, T/C (second compound 3.16 µM, first compound 0.949 µM) was 14.1% and the viability, T/C (second compound 3.16 µM, first compound 3 µM) was 12.1%. The viability, T/C (second compound 10 µM, first compound 0.00949 µM) was 24.8%, the viability, T/C (second compound 10 µM, first compound 0.03 µM) was 24% and the viability, T/C (second compound 10 µM, first compound 0.0949 µM) was 25%. For the same compound, the viability, T/C (second compound 10 µM, first compound 0.3 µM) was 18%, the viability, T/C (second compound 10 µM, first compound 0.949 µM) was 18.9% and the viability, T/C (second compound 10 µM, first compound 3 µM) was 12.2%.
